US20200199689A1, “Method for Predicting Effectiveness of Angiogenesis Inhibitor” (Eisai R&D Management Co., Ltd., priority 2011, published 2020)

Test system: human melanoma cell line grafted mouse models
Assay: Anti-tumor effect of angiogenesis inhibitor on mouse model grafted with melanoma cell line
Format: in vivo, nude mouse
Conditions: 100 mg/kg/day orally, 7th day after initiation of administration
Procedure: The human melanoma cell lines used in Example 1 were respectively cultured in the mediums shown in the column of “Culture medium” (containing 10% FBS) of Table 6 until about 80% confluency was obtained (in an incubator under 5% carbon dioxide gas). After culturing, cells were collected by trypsin-EDTA treatment in accordance with a conventional method. The cells were suspended with a phosphate buffer or a matrigel solution (mixture of phosphate buffer and matrigel in a common ratio of 1:1) to prepare suspension solution of 1×10^8 cells/mL or 5×10^7 cells/mL. The cell suspension (0.1 mL) was subcutaneously grafted to the side of the body of each nude mouse. In this manner, human melanoma cell line grafted mouse models were prepared.
After grafting, from the time point when a tumor volume reached about 200 mm^3, a mesylate of 4-(3-chloro-4-(cyclopropylaminocarbonyl)aminophenoxy)-7-methoxy-6-quinolinecarboxamide (hereinafter referred to as E7080) (100 mg/kg/day) was orally administered. The major axis and minor axis of the tumor were measured everyday by Digimatic Caliper (Mitsutoyo). The tumor volume and specific tumor volume were calculated in accordance with the following formula and thereby the anti-tumor effect (ΔT/C) of an angiogenesis inhibitor on the mouse model was measured.
Tumor volume (TV)=tumor longest diameter (mm)×tumor short diameter^2 (mm^2)/2
Anti-tumor effect (ΔT/C)=(TV of medicinal drug administered group−TV before initiation of administration)/(TV of control group−TV before initiation of administration)×100
In FIG. 1, the same cell lines used in Example 1 were used.

COc1cc2nccc(Oc3ccc(NC(=O)NC4CC4)c(Cl)c3)c2cc1C(N)=O [E7080, 4-(3-Chloro-4-(cyclopropylaminocarbonyl)aminophenoxy)-7-methoxy-6-quinolinecarboxamide] was tested, and the “Anti-tumor effect (ΔT/C)” value (melanoma cells where BRAF has a mutation and PTEN has no mutation) was 45%, the “Anti-tumor effect (ΔT/C)” value (melanoma cells where both of BRAF and PTEN are wild type) was 16% and the “Anti-tumor effect (ΔT/C)” value (melanoma cells where both of BRAF and PTEN have a mutation or loss of expression) was 23%.
